Laboratory results reported in ChEMBL document CHEMBL4673353, “Switching a Xanthine Oxidase Inhibitor to a Dual-Target Antagonist of P2Y and P2Y as an Oral Antiplatelet Agent with a Wider Therapeutic Window in Rats than Ticagrelor” (J Med Chem, 2020).

How the values were obtained:
[1] = Apparent volume of distribution in male Sprague-Dawley rat at 10 mg/kg, po administered as single dose by LC-MS analysis; format: ADME, organism-based; details: in vivo
[2] = Metabolic stability of compound in human liver microsomes assessed as elimination half-life at 0.2 uM in presence of NADPH by LC-MS/MS analysis; format: ADME, Microsome; details: read-out: beta t1/2
[3] = Clearance in male Sprague-Dawley rat at 10 mg/kg, iv administered as single dose by LC-MS analysis; format: ADME, organism-based; details: in vivo
[4] = biological target: T1, CYP2A6 (Homo sapiens, UniProt P11509); test: Inhibition of CYP2A6 in human liver microsomes at 10 uM using coumarin as substrate preincubated for 5 mins followed by NADPH generating system addition and measured after 120 mins by LC-MS/MS analysis relative to control; format: ADME; details: probe coumarin, time 125 min
T1 sequence (P11509 whole entry): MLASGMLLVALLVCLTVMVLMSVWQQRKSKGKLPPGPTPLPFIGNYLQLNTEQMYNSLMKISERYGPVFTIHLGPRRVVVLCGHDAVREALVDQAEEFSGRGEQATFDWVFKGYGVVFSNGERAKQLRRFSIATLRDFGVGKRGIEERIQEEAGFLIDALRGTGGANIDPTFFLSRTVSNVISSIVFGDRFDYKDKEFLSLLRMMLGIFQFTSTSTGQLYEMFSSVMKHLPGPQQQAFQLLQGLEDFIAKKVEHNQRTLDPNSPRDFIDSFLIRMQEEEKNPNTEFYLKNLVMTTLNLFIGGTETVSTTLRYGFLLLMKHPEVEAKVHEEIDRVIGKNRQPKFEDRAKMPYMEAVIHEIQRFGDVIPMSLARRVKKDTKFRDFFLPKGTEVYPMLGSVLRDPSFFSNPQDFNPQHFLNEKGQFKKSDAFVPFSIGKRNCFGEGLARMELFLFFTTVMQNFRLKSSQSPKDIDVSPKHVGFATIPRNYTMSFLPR

[5] = biological target: CYP2E1 (Homo sapiens, UniProt P05181); test: Inhibition of CYP2E1 in human liver microsomes at 10 uM using chlorzoxazone as substrate preincubated for 5 mins followed by NADPH generating system addition and measured after 120 mins by LC-MS/MS analysis relative to control; format: ADME; details: probe chlorzoxazone, time 125 min
Sequence of CYP2E1 (P05181 whole entry): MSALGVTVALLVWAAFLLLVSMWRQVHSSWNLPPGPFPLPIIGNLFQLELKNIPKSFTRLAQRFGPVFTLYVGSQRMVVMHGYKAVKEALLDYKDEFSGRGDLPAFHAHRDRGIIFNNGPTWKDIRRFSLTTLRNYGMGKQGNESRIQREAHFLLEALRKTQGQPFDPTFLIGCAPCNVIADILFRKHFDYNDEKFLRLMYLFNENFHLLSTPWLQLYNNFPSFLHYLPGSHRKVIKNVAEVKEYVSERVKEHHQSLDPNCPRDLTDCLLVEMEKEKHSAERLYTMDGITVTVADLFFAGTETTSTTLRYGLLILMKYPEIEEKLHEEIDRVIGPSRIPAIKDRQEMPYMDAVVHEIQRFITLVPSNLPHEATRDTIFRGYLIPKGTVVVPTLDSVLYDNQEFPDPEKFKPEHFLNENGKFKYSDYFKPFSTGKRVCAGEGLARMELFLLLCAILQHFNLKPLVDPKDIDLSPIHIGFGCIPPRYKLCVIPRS

[6] = biological target: CYP2C9 (Homo sapiens, UniProt P11712); test: Inhibition of CYP2C9 in human liver microsomes at 10 uM using tolbutamide as substrate preincubated for 5 mins followed by NADPH generating system addition and measured after 120 mins by LC-MS/MS analysis relative to control; format: ADME; details: probe tolbutamide, time 125 min
Sequence of CYP2C9 (P11712 whole entry): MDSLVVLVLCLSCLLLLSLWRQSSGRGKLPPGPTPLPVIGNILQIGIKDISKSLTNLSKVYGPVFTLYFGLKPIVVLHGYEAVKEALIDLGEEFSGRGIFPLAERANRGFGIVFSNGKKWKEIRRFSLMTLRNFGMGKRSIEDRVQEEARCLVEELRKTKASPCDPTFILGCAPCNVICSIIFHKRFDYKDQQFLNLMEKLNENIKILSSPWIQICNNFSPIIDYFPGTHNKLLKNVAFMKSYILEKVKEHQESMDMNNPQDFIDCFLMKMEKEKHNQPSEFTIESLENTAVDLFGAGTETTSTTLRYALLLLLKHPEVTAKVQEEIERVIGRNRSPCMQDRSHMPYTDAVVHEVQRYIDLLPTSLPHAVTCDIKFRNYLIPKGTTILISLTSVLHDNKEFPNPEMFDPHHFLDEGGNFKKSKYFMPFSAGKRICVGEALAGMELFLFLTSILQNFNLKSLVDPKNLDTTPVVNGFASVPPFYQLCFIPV

[7] = test system: Plasma; test: Antiplatelet activity in rabbit platelet-rich plasma assessed as inhibition of ADP-induced platelet aggregation preincubated for 5 mins followed by ADP addition measured every 1 min for up to 6 mins by microplate reader analysis; format: functional, cell-free; details: Oryctolagus cuniculus
[8] = Tmax in male Sprague-Dawley rat at 10 mg/kg, po administered as single dose by LC-MS analysis; format: ADME, organism-based; details: in vivo
[9] = Elimination half-life in male Sprague-Dawley rat at 10 mg/kg, po administered as single dose by LC-MS analysis; format: ADME, organism-based; details: in vivo, read-out: beta t1/2 (converted)
[10] = Stability of compound in simulated intestinal fluid assessed as parent compound remaining at 10 uM after 12 hrs by HPLC analysis relative to control
[11] = biological target: CYP2C19 (Homo sapiens, UniProt P33261); test: Inhibition of CYP2C19 in human liver microsomes at 10 uM using S-mephenytoin as substrate preincubated for 5 mins followed by NADPH generating system addition and measured after 120 mins by LC-MS/MS analysis relative to control; format: ADME; details: probe S-mephenytoin, time 125 min
Sequence of CYP2C19 (P33261 whole entry): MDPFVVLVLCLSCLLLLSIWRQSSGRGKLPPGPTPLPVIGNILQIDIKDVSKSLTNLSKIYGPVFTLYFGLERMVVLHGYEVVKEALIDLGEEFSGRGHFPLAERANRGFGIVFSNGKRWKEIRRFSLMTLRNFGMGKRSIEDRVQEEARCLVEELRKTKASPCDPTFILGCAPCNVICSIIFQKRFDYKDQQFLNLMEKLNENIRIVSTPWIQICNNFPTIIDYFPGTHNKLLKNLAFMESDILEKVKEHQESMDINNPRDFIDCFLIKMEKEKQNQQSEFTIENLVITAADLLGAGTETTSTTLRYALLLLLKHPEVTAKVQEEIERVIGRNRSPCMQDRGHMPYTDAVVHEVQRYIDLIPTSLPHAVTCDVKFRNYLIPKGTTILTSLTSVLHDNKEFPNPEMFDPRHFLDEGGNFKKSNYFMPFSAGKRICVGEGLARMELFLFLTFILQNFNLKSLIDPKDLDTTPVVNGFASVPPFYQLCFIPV

[12] = Cmax in male Sprague-Dawley rat at 10 mg/kg, po administered as single dose by LC-MS analysis; format: ADME, organism-based; design: route oral, dose 10 mg/kg; details: in vivo
[13] = Stability of compound in simulated gastric fluid assessed as parent compound remaining at 10 uM after 12 hrs by HPLC analysis relative to control
[14] = biological target: CYP3A4 (Homo sapiens, UniProt P08684); test: Inhibition of CYP3A4 in human liver microsomes at 10 uM using testosterone as substrate preincubated for 5 mins followed by NADPH generating system addition and measured after 120 mins by LC-MS/MS analysis relative to control; format: ADME; details: probe testosterone, time 125 min
Sequence of CYP3A4 (P08684 whole entry): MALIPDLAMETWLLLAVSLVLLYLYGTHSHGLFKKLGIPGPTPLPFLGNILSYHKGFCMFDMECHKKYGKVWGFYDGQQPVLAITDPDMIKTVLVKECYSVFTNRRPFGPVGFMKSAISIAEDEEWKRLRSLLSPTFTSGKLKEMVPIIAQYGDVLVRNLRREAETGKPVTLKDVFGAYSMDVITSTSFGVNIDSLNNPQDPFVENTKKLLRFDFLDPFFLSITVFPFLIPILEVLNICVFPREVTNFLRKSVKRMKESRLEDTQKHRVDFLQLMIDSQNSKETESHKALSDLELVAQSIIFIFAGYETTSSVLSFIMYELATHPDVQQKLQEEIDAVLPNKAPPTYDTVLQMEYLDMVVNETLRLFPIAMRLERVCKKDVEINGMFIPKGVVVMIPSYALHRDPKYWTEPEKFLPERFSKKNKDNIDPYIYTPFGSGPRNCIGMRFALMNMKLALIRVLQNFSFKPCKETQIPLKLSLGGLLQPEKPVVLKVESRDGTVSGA

[15] = Metabolic stability of compound in rat liver microsomes assessed as elimination half-life at 0.2 uM in presence of NADPH by LC-MS/MS analysis; format: ADME, Microsome; details: read-out: beta t1/2
[16] = biological target: T2, CYP1A2 (Homo sapiens, UniProt P05177); test: Inhibition of CYP1A2 in human liver microsomes at 10 uM using phenacetin as substrate preincubated for 5 mins followed by NADPH generating system addition and measured after 120 mins by LC-MS/MS analysis relative to control; format: ADME; details: probe phenacetin, time 125 min
T2 sequence (P05177 whole entry): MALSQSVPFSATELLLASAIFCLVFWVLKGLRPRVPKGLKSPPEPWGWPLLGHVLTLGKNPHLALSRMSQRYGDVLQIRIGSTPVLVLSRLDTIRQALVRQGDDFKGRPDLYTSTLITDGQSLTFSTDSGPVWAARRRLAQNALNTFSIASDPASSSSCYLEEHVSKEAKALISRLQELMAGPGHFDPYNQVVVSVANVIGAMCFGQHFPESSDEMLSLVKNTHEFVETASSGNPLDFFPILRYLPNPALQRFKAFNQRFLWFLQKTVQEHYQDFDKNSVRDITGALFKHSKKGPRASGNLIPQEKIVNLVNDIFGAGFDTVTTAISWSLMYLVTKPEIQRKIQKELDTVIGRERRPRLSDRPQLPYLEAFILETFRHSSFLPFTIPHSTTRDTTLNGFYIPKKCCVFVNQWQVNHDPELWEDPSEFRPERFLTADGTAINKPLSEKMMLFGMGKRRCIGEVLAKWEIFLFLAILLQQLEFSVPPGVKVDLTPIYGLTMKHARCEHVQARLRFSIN

[17] = biological target: Cytochrome P450 3A4 (Homo sapiens, UniProt P08684); test: Inhibition of CYP3A4 in human liver microsomes using testosterone as substrate preincubated for 5 mins followed by NADPH generating system addition and measured after 120 mins by LC-MS/MS; format: ADME
Sequence of Cytochrome P450 3A4 (P08684 whole entry): as the sequence (P08684 whole entry) above

[18] = Clearance in male Sprague-Dawley rat at 10 mg/kg, po administered as single dose by LC-MS analysis; format: ADME, organism-based; details: in vivo
[19] = biological target: CYP2D6 (Homo sapiens, UniProt P10635); test: Inhibition of CYP2D6 in human liver microsomes at 10 uM using dextromethorphan as substrate preincubated for 5 mins followed by NADPH generating system addition and measured after 120 mins by LC-MS/MS analysis relative to control; format: ADME; details: probe dextromethorphan, time 125 min
Sequence of CYP2D6 (P10635 whole entry): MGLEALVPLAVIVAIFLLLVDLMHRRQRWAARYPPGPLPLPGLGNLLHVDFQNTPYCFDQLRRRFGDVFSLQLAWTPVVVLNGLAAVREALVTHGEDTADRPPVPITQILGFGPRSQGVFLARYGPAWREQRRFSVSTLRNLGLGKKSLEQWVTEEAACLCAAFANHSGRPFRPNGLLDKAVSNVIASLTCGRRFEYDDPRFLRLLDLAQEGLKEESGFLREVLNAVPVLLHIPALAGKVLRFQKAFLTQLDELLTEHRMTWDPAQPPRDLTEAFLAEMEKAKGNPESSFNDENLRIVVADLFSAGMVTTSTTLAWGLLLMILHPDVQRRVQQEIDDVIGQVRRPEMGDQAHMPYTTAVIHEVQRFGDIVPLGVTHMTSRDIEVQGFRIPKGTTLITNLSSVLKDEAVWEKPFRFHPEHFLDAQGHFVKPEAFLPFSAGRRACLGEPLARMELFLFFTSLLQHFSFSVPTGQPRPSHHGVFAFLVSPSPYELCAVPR

[20] = Apparent volume of distribution in male Sprague-Dawley rat at 10 mg/kg, iv administered as single dose by LC-MS analysis; format: ADME, organism-based; details: in vivo, read-out: Vz
[21] = AUC (0 to infinity) in male Sprague-Dawley rat at 10 mg/kg, po administered as single dose by LC-MS analysis; format: ADME, organism-based; design: route oral, time infinity, dose 10 mg/kg; details: in vivo
[22] = Toxicity in Sprague-Dawley rat model of tail-snip bleeding assessed as increase in bleeding time at 10 mg/kg, po administered via gavage as single dose measured within 2 hrs post tail snip relative to control; format: organism-based; details: in vivo

| SMILES | Vz [1] | half-life at 0.2 µM [2] | inhibition at 2 h, 10 µM [4] | inhibition at 2 h, 10 µM [5] | inhibition at 2 h, 10 µM [6] | IC50 [7] | Tmax [8] | half-life [9] | Stability [10] | inhibition at 2 h, 10 µM [11] | Cmax [12] | Stability [13] | inhibition at 2 h, 10 µM [14] | half-life at 0.2 µM [15] | inhibition at 2 h, 10 µM [16] | CL/F [18] | inhibition at 2 h, 10 µM [19] | AUC(0-inf) [21] | other results |
| --- | --- | --- | --- | --- | --- | --- | --- | --- | --- | --- | --- | --- | --- | --- | --- | --- | --- | --- | --- |
| Cc1nc(-c2cccc(C#N)c2)n(OCc2ccc(C#N)cc2)c1C(=O)O | 239.6 L/kg | > 2 h | 3.64% | 6.79% | 0.41% | 3.88 µM | 0.167 h | 13.1 h | 73% | 1.97% | 214 ng/mL | 90% | 7.4% | > 2 h | 0.11% | 261 mL/min/kg | 2.42% | 809 ng·h/mL | clearance [3]: 50.5 mL/min/kg; IC50 [17]: > 10 µM; Vd [20]: 21.3 L/kg |
| CCOC(=O)c1c(C)nc(-c2cccc(C#N)c2)n1OCc1ccc(C#N)cc1 | 190.56 L/kg | 2.01 h | 7.69% | 8.68% | 0.024% | 4.24 µM | 0.46 h | 13.8 h | 93% | 4.52% | 68 ng/mL | 90% | 2.16% | 0.385 h | 3.85% | 207 mL/min/kg | 31.7% | 1140 ng·h/mL | fold change (FC) [22]: 1.92 |
